From patent US12194039B2, “Methods of treating heart failure by administering omecamtiv mecarbil” (Cytokinetics, Inc., priority 2020, dated 2025)

What was measured:
[1] = test system: patients with heart failure and reduced ejection fraction; type: in vivo
Description: The study was event-driven and was ended after approximately 1590 cardiovascular deaths. The overall type I error was 0.05 for 2-sided testing across primary and secondary endpoints with control for multiplicity testing. A single interim efficacy analysis was conducted after approximately two-thirds of the targeted number of cardiovascular deaths accrued with a one-sided alpha of 0.0005. Given the negligible impact of this interim on the final alpha, the full 0.05 was used in the final analysis consistent with the Haybittle-Peto approach. […] The mean differences in the KCCQ TSS change from baseline to Week 24 were estimated using a mixed model stratified by randomization setting (inpatient and outpatient) containing baseline TSS value, region, baseline eGFR, scheduled visit, treatment group, and the interaction of treatment group with scheduled visit. A joint omnibus F-test was used to test the treatment effect for the KCCQ TSS. An overall pooled estimate for the KCCQ TSS treatment difference to placebo were conducted using a likelihood based approach. The prespecified safety analyses included: serious adverse events; adverse events associated with discontinuation of study treatment; “adverse events of interest” i.e., ventricular arrhythmias requiring treatment and positively adjudicated major cardiac ischemic events (including myocardial infarction, hospitalization for unstable angina, coronary revascularization). […] All analyses were performed with the use of SAS software, version 9.4 (SAS Institute).
Excluding the discontinuations due to death, the study drug was stopped in 847 patients (20.6%) receiving omecamtiv mecarbil and 897 patients (21.9%) receiving placebo with 371 (9.0%) in the omecamtiv mecarbil group and 382 (9.3%) receiving placebo discontinuing due to an adverse event. Patients receiving omecamtiv mecarbil had no change in potassium or creatinine concentrations during the course of the trial compared to placebo. Patients receiving omecamtiv mecarbil had increased median concentrations of high sensitivity troponin-I from baseline of 0.004 ng/mL (lower limit of quantification, 0.010 ng/mL) compared to placebo at week 24. […] Ventricular arrhythmias were similar in patients receiving omecamtiv mecarbil compared to placebo (Table 3).
Continuous variables were summarized as means±standard deviations (SD) or medians and first and third quartiles (Q1, Q3), as appropriate. Categorical variables were summarized as counts and percentages. […] The change from baseline on NT-proBNP analysis included all participants who underwent randomization. The difference column is the exponentiated change from baseline on the log scale using a mixed model containing the log baseline value, region, baseline eGFR, scheduled visit, treatment group and interaction of treatment with scheduled visit.
Table 4 summarizes the adverse events reported in 1% or more of patients.

BCRP = target: T1, BCRP (Homo sapiens, UniProt Q9UNQ0); assay: Transporter substrate assessment; type: in vitro ADME; details: result in words
T1 sequence (Q9UNQ0 1-655): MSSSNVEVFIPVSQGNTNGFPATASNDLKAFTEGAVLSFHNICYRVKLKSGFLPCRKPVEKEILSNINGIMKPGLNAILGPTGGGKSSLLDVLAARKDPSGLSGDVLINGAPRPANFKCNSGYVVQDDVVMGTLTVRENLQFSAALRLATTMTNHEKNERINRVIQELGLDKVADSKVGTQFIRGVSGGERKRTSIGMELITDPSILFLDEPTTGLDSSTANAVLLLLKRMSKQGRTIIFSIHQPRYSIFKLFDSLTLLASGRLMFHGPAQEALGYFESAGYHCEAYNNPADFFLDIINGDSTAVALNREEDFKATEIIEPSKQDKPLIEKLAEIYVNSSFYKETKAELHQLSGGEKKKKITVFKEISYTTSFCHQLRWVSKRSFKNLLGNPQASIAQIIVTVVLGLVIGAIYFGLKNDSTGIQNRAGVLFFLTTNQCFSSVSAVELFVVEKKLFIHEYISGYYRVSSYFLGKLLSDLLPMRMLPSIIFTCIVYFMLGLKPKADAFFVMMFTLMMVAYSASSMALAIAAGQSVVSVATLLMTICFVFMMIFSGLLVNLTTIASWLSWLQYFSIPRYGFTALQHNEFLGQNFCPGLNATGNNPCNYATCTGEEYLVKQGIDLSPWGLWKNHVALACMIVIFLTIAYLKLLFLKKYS

CYP2C8 = target: T2, CYP2C8 (Homo sapiens, UniProt P10632); assay: In vitro inhibition by OM; type: in vitro ADME; details: result in words
T2 sequence (P10632 1-490): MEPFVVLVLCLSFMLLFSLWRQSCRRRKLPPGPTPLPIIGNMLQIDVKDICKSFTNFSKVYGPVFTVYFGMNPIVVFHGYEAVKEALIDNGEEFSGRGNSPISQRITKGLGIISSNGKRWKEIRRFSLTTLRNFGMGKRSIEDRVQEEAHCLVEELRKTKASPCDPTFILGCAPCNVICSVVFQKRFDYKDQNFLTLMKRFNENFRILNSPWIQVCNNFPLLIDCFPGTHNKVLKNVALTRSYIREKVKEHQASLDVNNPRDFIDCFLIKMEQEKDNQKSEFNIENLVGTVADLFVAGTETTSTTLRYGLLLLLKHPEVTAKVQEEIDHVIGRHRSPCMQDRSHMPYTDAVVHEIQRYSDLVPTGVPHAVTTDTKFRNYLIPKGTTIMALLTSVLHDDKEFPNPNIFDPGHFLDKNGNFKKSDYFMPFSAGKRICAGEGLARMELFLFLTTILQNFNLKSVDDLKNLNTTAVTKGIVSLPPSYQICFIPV

[2] = treatment-emergent serious adverse event, preferred term, N = 4110

COC(=O)N1CCN(Cc2cccc(NC(=O)Nc3ccc(C)nc3)c2F)CC1 [omecamtiv mecarbil]
Acute kidney injury, % ([1]; human, in vivo): (3.1) %
Acute myocardial infarction, % ([1]; human, in vivo): (1.7) %
Adjudicated major cardiac ischemic events, no. ([1]; human, in vivo): 200 no.
Adjudicated major cardiac ischemic events, relative risk ([1]; human, in vivo): 1.06
Angina pectoris, % ([1]; human, in vivo): (1.0) %
Angina unstable, % ([1]; human, in vivo): (1.5) %
Atrial fibrillation, % ([1]; human, in vivo): (2.3) %
Cardiac arrest, % ([1]; human, in vivo): (1.2) %
Cardiac failure acute, % ([1]; human, in vivo): (5.2) %
Cardiac failure chronic, % ([1]; human, in vivo): (3.8) %
Cardiac failure congestive, % ([1]; human, in vivo): (3.6) %
Cardiac failure, % ([1]; human, in vivo): (24.0) %
Cardiogenic shock, % ([1]; human, in vivo): (1.8) %
Chronic kidney disease, % ([1]; human, in vivo): (0.9) %
Chronic obstructive pulmonary disease, % ([1]; human, in vivo): (1.5) %
Coronary revascularization (adjudicated), % ([1]; human, in vivo): (2.8) %
Coronary revascularization (adjudicated), no. ([1]; human, in vivo): 115 no.
Drug discontinuation due to an adverse event, no. ([1]; human, in vivo): 371 no.
Drug discontinuation due to an adverse event, relative risk ([1]; human, in vivo): 0.97
Hospitalized for unstable angina (adjudicated), % ([1]; human, in vivo): (0.6) %
Hospitalized for unstable angina (adjudicated), no. ([1]; human, in vivo): 25 no.
Hypotension, % ([1]; human, in vivo): (1.2) %
Myocardial infarction (adjudicated major cardiac ischemic event), no. ([1]; human, in vivo): 122 no.
Myocardial infarction, % ([1]; human, in vivo): (0.9) %
Pneumonia, % ([1]; human, in vivo): (4.2) %
Renal failure, % ([1]; human, in vivo): (0.6) %
Renal impairment, % ([1]; human, in vivo): (0.6) %
Respiratory tract infection, % ([1]; human, in vivo): (0.4) %
Sepsis, % ([1]; human, in vivo): (1.2) %
Septic shock, % ([1]; human, in vivo): (0.9) %
Serious adverse events (subjects reporting treatment-emergent serious adverse events), % ([1]; human, in vivo): (57.7) %
Serious adverse events (subjects reporting treatment-emergent serious adverse events), no. ([1]; human, in vivo): 2373 no.
Serious adverse events, relative risk ([1]; human, in vivo): 0.97
Serious adverse ventricular arrhythmia requiring treatment, % ([1]; human, in vivo): (2.9) %
Serious adverse ventricular arrhythmia requiring treatment, no. ([1]; human, in vivo): 119 no.
Serious adverse ventricular arrhythmia requiring treatment, relative risk ([1]; human, in vivo): 0.93
Stroke, % ([1]; human, in vivo): (1.8) %
Stroke, no. ([1]; human, in vivo): 76 no.
Stroke, relative risk ([1]; human, in vivo): 0.68
Study drug stopped, % of patients ([1]; human, in vivo): 20.6%
Study drug stopped, no. of patients ([1]; human, in vivo): 847 no.
Syncope, % ([1]; human, in vivo): (1.0) %
Torsade de pointes/QT prolongation (narrow SMQ), % ([1]; human, in vivo): (4.3) %
Torsade de pointes/QT prolongation (narrow SMQ), no. ([1]; human, in vivo): 176 no.
Torsade de pointes/QT prolongation (narrow SMQ), relative risk ([1]; human, in vivo): 0.90
Ventricular fibrillation, % ([1]; human, in vivo): (0.7) %
Ventricular tachyarrhythmias (narrow SMQ), % ([1]; human, in vivo): (7.1) %
Ventricular tachyarrhythmias (narrow SMQ), no. ([1]; human, in vivo): 290 no.
Ventricular tachyarrhythmias (narrow SMQ), relative risk ([1]; human, in vivo): 0.95
Ventricular tachycardia, % ([1]; human, in vivo): (2.6) %
lschaemic stroke, % ([1]; human, in vivo): (0.9) %
Death, % [1, 2]: (1.6) %
Sudden cardiac death, % [1, 2]: (0.7) %
Sudden death, % [1, 2]: (1.3) %
Substrate of BCRP (BCRP): substrate
Inhibition of CYP2C8 (CYP2C8): inhibitor
